Measured values from PubChem BioAssay AID334 (DTP/NCI, 2004).
Several values for one entry are separate records, joined by “and”; a condition that tells them apart may be missing. Equal values may be shown once. Inconclusive results and toxic doses are left out.

Test system: CD2F1 mice, intracerebral P388 leukemia, median survival T/C%
Experiment: NCI In Vivo Anticancer Drug Screen. Data for tumor model P388 Leukemia (intracerebral) in CD2F1 (CDF1) mice
Conditions: endpoint: median survival time, higher = longer survival
Protocol: The antitumor activity of compounds was measured in mice bearing transplantable tumors. Survival or tumor size were measured and the results are expressed as the measurement made in the treated group (T) divided by the measurement made in the vehicle treated control group (C). The tumor model used in this assay is P388 Leukemia (intracerebral) in CD2F1 (CDF1) mice

[1] = dose: 50.0 mg/kg/injection, schedule: Q01DX009 (ip), vehicle: saline
[2] = dose: 100.0 mg/kg/injection, schedule: Q01DX009 (ip), vehicle: saline
[3] = dose: 8.0 mg/kg/injection, schedule: Q01DX009 (ip), vehicle: saline with Tween-80
[4] = dose: 16.0 mg/kg/injection, schedule: Q01DX009 (ip), vehicle: saline with Tween-80

## O=C1C=CN(C2OC(CO)C(O)C2O)C(=O)C1 (configuration not stated)
dose: 12.5 mg/kg/injection, schedule: Q01DX009 (ip), vehicle: saline
  T/C: 112 % of control
dose: 25.0 mg/kg/injection, schedule: Q01DX009 (ip), vehicle: saline
  T/C: 106 % of control
[1]
  T/C: 104 % of control
[2]
  T/C: 106 % of control
dose: 200.0 mg/kg/injection, schedule: Q01DX009 (ip), vehicle: saline
  T/C: 94 % of control
dose: 400.0 mg/kg/injection, schedule: Q01DX009 (ip), vehicle: saline
  T/C: 94 % of control

## COc1cc(C[C@H]2c3cc(OC)c(OC)cc3CCN2C)c(Oc2cc3c(cc2OC)-c2c(OC)c(OC)cc4c2[C@H](C3)N(C)CC4)cc1OC
dose: 50.0 mg/kg/injection, schedule: Q01DX005 (ip), vehicle: Klucel (hydroxypropylcellulose) (HPC)
  T/C: 102 % of control and 106 % of control and 107 % of control
dose: 200.0 mg/kg/injection, schedule: Q01DX005 (ip), vehicle: Klucel (hydroxypropylcellulose) (HPC)
  T/C: 96 % of control and 101 % of control and 104 % of control

## CN1CC[C@]23c4c5ccc(O)c4O[C@H]2C(=O)CC[C@H]3[C@H]1C5
dose: 3.12 mg/kg/injection, schedule: Q01DX005 (iv), vehicle: saline
  T/C: 106 % of control
dose: 6.25 mg/kg/injection, schedule: Q01DX005 (iv), vehicle: saline
  T/C: 104 % of control
dose: 12.5 mg/kg/injection, schedule: Q01DX005 (iv), vehicle: saline
  T/C: 95 % of control

## COc1cccc2c1C(=O)c1c(O)c3c(c(O)c1C2=O)CC(O)(C(=O)CO)CC3OC1CC(N)C(O)C(C)O1 (configuration not stated)
dose: 0.78 mg/kg/injection, schedule: Q04DX003 (ip), vehicle: saline
  T/C: 107 % of control
dose: 1.56 mg/kg/injection, schedule: Q04DX003 (ip), vehicle: saline
  T/C: 98 % of control
dose: 3.12 mg/kg/injection, schedule: Q04DX003 (ip), vehicle: saline
  T/C: 106 % of control
dose: 3.75 mg/kg/injection, schedule: Q04DX003 (ip), vehicle: clinical formulation
  T/C: 100 % of control
dose: 3.75 mg/kg/injection, schedule: Q04DX003 (iv), vehicle: clinical formulation
  T/C: 100 % of control
dose: 6.25 mg/kg/injection, schedule: Q04DX003 (ip), vehicle: saline
  T/C: 97 % of control
dose: 7.5 mg/kg/injection, schedule: Q04DX003 (ip), vehicle: clinical formulation
  T/C: 103 % of control
dose: 7.5 mg/kg/injection, schedule: Q04DX003 (iv), vehicle: clinical formulation
  T/C: 99 % of control
dose: 12.5 mg/kg/injection, schedule: Q04DX003 (ip), vehicle: saline
  T/C: 103 % of control
dose: 15.0 mg/kg/injection, schedule: Q04DX003 (ip), vehicle: clinical formulation
  T/C: 100 % of control
dose: 15.0 mg/kg/injection, schedule: Q04DX003 (iv), vehicle: clinical formulation
  T/C: 106 % of control
dose: 25.0 mg/kg/injection, schedule: Q04DX003 (ip), vehicle: saline
  T/C: 91 % of control
dose: 30.0 mg/kg/injection, schedule: Q04DX003 (iv), vehicle: clinical formulation
  T/C: 90 % of control

## C[C@]1(O)CC[C@H]2[C@@H]3CCC4=CC(=O)CC[C@]4(C)[C@@]3(F)[C@@H](O)C[C@@]21C
[3]
  T/C: 100 % of control and 105 % of control
[4]
  T/C: 91 % of control and 109 % of control
dose: 32.0 mg/kg/injection, schedule: Q01DX009 (ip), vehicle: saline with Tween-80
  T/C: 96 % of control and 106 % of control
dose: 64.0 mg/kg/injection, schedule: Q01DX009 (ip), vehicle: saline with Tween-80
  T/C: 95 % of control and 104 % of control
dose: 128.0 mg/kg/injection, schedule: Q01DX009 (ip), vehicle: saline with Tween-80
  T/C: 91 % of control and 104 % of control
dose: 256.0 mg/kg/injection, schedule: Q01DX009 (ip), vehicle: saline with Tween-80
  T/C: 96 % of control and 106 % of control
dose: 512.0 mg/kg/injection, schedule: Q01DX009 (ip), vehicle: saline with Tween-80
  T/C: 89 % of control and 104 % of control

## COc1cccc2c1C(=O)c1c(O)c3c(c(O)c1C2=O)C[C@@](O)(/C(C)=N/NC(=O)c1ccccc1)C[C@@H]3OC1CC(N)C(O)C(C)O1 (some centres not stated)
dose: 1.0 mg/kg/injection, schedule: Q01DX009 (ip), vehicle: saline with Tween-80
  T/C: 111 % of control
dose: 1.0 mg/kg/injection, schedule: Q01DX009 (ip), vehicle: saline
  T/C: 103 % of control and 106 % of control
dose: 2.0 mg/kg/injection, schedule: Q01DX009 (ip), vehicle: saline with Tween-80
  T/C: 90 % of control and 108 % of control
dose: 2.0 mg/kg/injection, schedule: Q01DX009 (ip), vehicle: saline
  T/C: 113 % of control and 106 % of control
dose: 4.0 mg/kg/injection, schedule: Q01DX009 (ip), vehicle: saline with Tween-80
  T/C: 114 % of control and 116 % of control
dose: 4.0 mg/kg/injection, schedule: Q01DX009 (ip), vehicle: saline
  T/C: 113 % of control and 111 % of control
[3]
  T/C: 106 % of control and 111 % of control
dose: 8.0 mg/kg/injection, schedule: Q01DX009 (ip), vehicle: saline
  T/C: 100 % of control and 103 % of control
[4]
  T/C: 90 % of control and 94 % of control

## COc1ccc2c(c1OC(C)=O)-c1cc(OC(C)=O)cc3c1C(C2)N(C(=O)CN(CCCl)CCCl)CC3 (configuration not stated)
dose: 1.5 mg/kg/injection, schedule: Q01DX009 (ip), vehicle: DMSO
  T/C: 104 % of control
dose: 3.0 mg/kg/injection, schedule: Q01DX009 (ip), vehicle: DMSO
  T/C: 101 % of control
dose: 6.0 mg/kg/injection, schedule: Q01DX009 (ip), vehicle: DMSO
  T/C: 100 % of control
dose: 12.0 mg/kg/injection, schedule: Q01DX009 (ip), vehicle: DMSO
  T/C: 88 % of control

## O=NN(CCCl)C(=O)NCCCl
dose: 8.0 mg/kg/injection, schedule: Q01DX005 (iv), vehicle: saline + alcohol
  T/C: 160 % of control
dose: 30.0 mg/kg/injection, schedule: Q01DX001 (ip), vehicle: saline + alcohol
  T/C: 202 % of control
dose: 40.0 mg/kg/injection, schedule: Q01DX001 (ip), vehicle: saline + alcohol
  T/C: 202 % of control

## NC(CSC(c1ccccc1)(c1ccccc1)c1ccccc1)C(=O)O (configuration not stated)
dose: 32.0 mg/kg/injection, schedule: Q01DX005 (ip), vehicle: Klucel (hydroxypropylcellulose) (HPC)
  T/C: 99 % of control and 106 % of control
dose: 64.0 mg/kg/injection, schedule: Q01DX005 (ip), vehicle: Klucel (hydroxypropylcellulose) (HPC)
  T/C: 102 % of control and 110 % of control
dose: 128.0 mg/kg/injection, schedule: Q01DX005 (ip), vehicle: Klucel (hydroxypropylcellulose) (HPC)
  T/C: 114 % of control and 100 % of control
dose: 256.0 mg/kg/injection, schedule: Q01DX005 (ip), vehicle: Klucel (hydroxypropylcellulose) (HPC)
  T/C: 121 % of control

## O=C1C(=O)c2ccccc2C(O)=C1CC=C(Cl)Cl
dose: 10.0 mg/kg/injection, schedule: Q01DX005 (ip), vehicle: Klucel (hydroxypropylcellulose) (HPC)
  T/C: 102 % of control and 109 % of control
dose: 20.0 mg/kg/injection, schedule: Q01DX005 (ip), vehicle: Klucel (hydroxypropylcellulose) (HPC)
  T/C: 96 % of control and 98 % of control
dose: 40.0 mg/kg/injection, schedule: Q01DX005 (ip), vehicle: Klucel (hydroxypropylcellulose) (HPC)
  T/C: 104 % of control and 105 % of control
dose: 80.0 mg/kg/injection, schedule: Q01DX005 (ip), vehicle: Klucel (hydroxypropylcellulose) (HPC)
  T/C: 100 % of control

## COCC(O)Cn1ccnc1[N+](=O)[O-] (configuration not stated)
dose: 32.0 mg/kg/injection, schedule: Q01DX009 (ip), vehicle: Klucel (hydroxypropylcellulose) (HPC)
  T/C: 113 % of control
dose: 64.0 mg/kg/injection, schedule: Q01DX009 (ip), vehicle: Klucel (hydroxypropylcellulose) (HPC)
  T/C: 102 % of control
dose: 128.0 mg/kg/injection, schedule: Q01DX009 (ip), vehicle: Klucel (hydroxypropylcellulose) (HPC)
  T/C: 96 % of control
dose: 256.0 mg/kg/injection, schedule: Q01DX009 (ip), vehicle: Klucel (hydroxypropylcellulose) (HPC)
  T/C: 102 % of control
dose: 512.0 mg/kg/injection, schedule: Q01DX009 (ip), vehicle: Klucel (hydroxypropylcellulose) (HPC)
  T/C: 102 % of control

## CC1(C)N=C(N)N=C(N)N1c1ccc(CCC(=O)Nc2ccc(S(=O)(=O)F)cc2)cc1
[1]
  T/C: 111 % of control
[2]
  T/C: 100 % of control

## CCCCCCC(=O)O[C@H]1CC[C@H]2[C@@H]3CCC4=CC(=O)CC[C@]4(C)[C@H]3CC[C@]12C
dose: 8.0 mg/kg/injection, schedule: Q01DX009 (ip), vehicle: saline + alcohol
  T/C: 122 % of control and 103 % of control
dose: 16.0 mg/kg/injection, schedule: Q01DX009 (ip), vehicle: saline + alcohol
  T/C: 118 % of control and 105 % of control
dose: 32.0 mg/kg/injection, schedule: Q01DX009 (ip), vehicle: saline + alcohol
  T/C: 120 % of control and 102 % of control
dose: 64.0 mg/kg/injection, schedule: Q01DX009 (ip), vehicle: saline + alcohol
  T/C: 114 % of control and 100 % of control
dose: 128.0 mg/kg/injection, schedule: Q01DX009 (ip), vehicle: saline + alcohol
  T/C: 118 % of control and 112 % of control

## CCCCCC(=O)NC(Cc1ccc(N(CCCl)CCCl)cc1)C(=O)O (configuration not stated)
dose: 1.3 mg/kg/injection, schedule: Q03HX008 (ip), vehicle: saline
  T/C: 94 % of control
dose: 2.6 mg/kg/injection, schedule: Q03HX008 (ip), vehicle: saline
  T/C: 105 % of control
dose: 5.3 mg/kg/injection, schedule: Q03HX008 (ip), vehicle: saline
  T/C: 105 % of control
dose: 10.6 mg/kg/injection, schedule: Q03HX008 (ip), vehicle: saline
  T/C: 100 % of control
dose: 21.2 mg/kg/injection, schedule: Q03HX008 (ip), vehicle: saline
  T/C: 115 % of control
